Measured values as given in US9144596B2, “Compositions and methods of treating neoplasia” (University of Florida Research Foundation, Inc., priority 2007, dated 2015).
“Also recorded” adds a separate entry of the source.

Tests used:
[1] = molecular target: T1, pol-β (Homo sapiens, UniProt P06746); experiment: dRP-lyase activity assay; assay type: biochemical; settings: 1 nM pol-βwt; various concentrations of test substance
T1 construct: made in house; host or cells: Escherichia coli BL21(DE3)pLysS

[2] = molecular target: T1, pol-β; experiment: strand-displacement synthesis, reconstituted in vitro base excision repair assay with 32P-F-DNA; assay type: biochemical; settings: for pol-β-directed single-nucleotide incorporation: all the concentrations tested; for pol-β-directed strand-displacement synthesis: different concentrations
[3] = molecular target: T1, pol-β; experiment: in vitro SN- and LP-BER assay with 32P-U-DNA; assay type: biochemical; settings: for complete repair of 32P-U-DNA by the SN-BER pathway: absence of Fen-1, DNA ligase I; for complete repair of 32P-U-DNA by the LP-BER pathway: presence of Fen-1, DNA ligase I
[4] = molecular target: T1, pol-β; experiment: long patch-base excision repair assay with 32P-F-DNA; assay type: biochemical; settings: pol-βwt, Fen-1, DNA ligase I; 2 μM APCwt peptide
Description: To determine whether the blockage in the strand-displacement synthesis by the pol-βMut-1 was sufficient to block long patch-base excision repair, a long patch-base excision repair assay was set up as outlined in FIG. 10A. […] This DNA repair was blocked in the presence of 2 μM APCwt peptide, but not with APC(I-A,Y-A) peptide (FIG. 10B, compare lane 5 with 8 for APCwt and with 9-11 for APC(I-A,Y-A), respectively, for the formation of the 63-mer ligated product). […] The 2-nucleotide strand-displacement synthesis by pol-βMut-1 protein was sufficient to carry out long patch-base excision repair in the presence of Fen-1.
To study long patch- and single nucleotide-base excision repair activities, different types of DNA substrates were used. For long patch-base excision repair activity, an AP-site analog (3-hydroxy-2-hydroxymethyltetrahydrofuran, noted as F) was introduced at the 24th position of the 63-mer DNA (5′-[…] CGACA-3′ (SEQ ID NOS 17-18)), which was called F-DNA (27). For making U-DNA, uracil was introduced at the 24th position of 63-mer sense oligonucleotide (5′-[…] GACA-3′ (SEQ ID NO: 19)). Sense strands of F-DNA and U-DNA were 5′-end labeled by [a-^32P]ATP and T4 polynucleotide kinase and purified with a nick-column (GE Healthcare, Piscataway, N.J.). Later they were annealed with the complementary 63-mer oligonucleotide (5′-[…] CTAG-3′ (SEQ ID NO: 20)) at a 1:1 molar ratio. […]

[5] = tested on: HCT-116(APC+/+) cells; experiment: sulforhodamine B (SRB) colorimetric cytotoxicity assay; assay type: cell-based, human; settings: for effect on the cytotoxicity of TMZ: 2 hours pretreatment, then TMZ 48 hours
Description: (§1) The IC50 (the drug concentration needed to prevent cell proliferation by 50%) of TMZ was determined using a sulforhodamine B (SRB) colorimetric assay. This assay relies on the ability of SRB to bind the protein components of cells that have been fixed to tissue culture plates by trichloroacetic acid (TCA) (Vachai V, Kirtikara K. Sulforhodamine B colorimetric assay for cytotoxicity screening. Nat. Proto. 3: […], 2006). Briefly, the HCT-116(APC^+/+) and HCT-116(APC^−/−) were seeded in 96-well plates at a density of 500 cells per well. After 24 hours, while the cells were in the log phase of cell growth, the cells were treated with different concentrations of TMZ for 48 hours. The cells were subsequently fixed with 10% (w/v) of tricholoroacetic acid, washed with double distilled water, and stained with 0.4% SRB. Cells were then repeatedly washed with 1% (v/v) of acetic acid to remove the unbound dye. The protein bound dye was dissolved in 10 mM Tris-base solution (pH 10.5). The developed color was measured at 564 nm. The percentage of cell survival as a function of drug concentration was then plotted to determine the IC50 value. The IC50 of TMZ in HCT-116(APC^+/+) and HCT-116(APC^−/−) cells was 200 and 400 μM, respectively (FIG. 18A). […] This is consistent with the hypothesis that APC-mediated blockage of base excision repair increase d the sensitivity to TMZ in APC^+/+ cells. SRB assays were then used to determine whether TMZ-induced cytotoxicity was correlative to the increased level of APC in HCT-116(APC^+/+) cells.
(§2) APC blocked base excision repair and sensitized colon cancer cells after TMZ treatment. […] The cellular toxicity was determined by sulforhodamine B (SRB) colorimetric assay as described above. […] The cytotoxicity of these compounds was greater in HCT-116(APC^+/+) cells than in HCT-116(APC^−/−) cells (FIG. 19, compare the results of Panel A with B and C with D, respectively).

[6] = tested on: HCT-116(APC−/−) cells; experiment: as above; assay type: cell-based, human; settings: for effect on the cytotoxicity of TMZ: 2 hours pretreatment, then TMZ 48 hours
Description: as §1, §2

[7] = tested on: HCT-116-APC(WT)+ch3 cells; experiment: SRB cytotoxicity assay, MMR-proficient cells; assay type: cell-based, human
Description: (§3) FIGS. 24A and 24D NSC-124854 enhanced the cytotoxicity of TMZ in both MMR-positive and MMR-negative colon cancer cell lines in culture. […] After 48 hours, cells were harvested and processed for cytotoxicity determination. Data presented are the mean±SE of three different estimations.
as §1

[8] = tested on: SW480 cells; experiment: SRB cytotoxicity assay, MMR-proficient cells; assay type: cell-based, human
Description: as §3, §1

[9] = tested on: CACO-2 cells; experiment: SRB cytotoxicity assay, MMR-deficient cells; assay type: cell-based; settings: Homo sapiens; CACO-2, TMZ alone, 48 hours
Description: (§4) FIGS. 24A and 24D NSC-124854 enhanced the cytotoxicity of TMZ in both MMR-positive and MMR-negative colon cancer cell lines in culture. MMR-proficient [HCT-116-APC(WT)+ch3 and SW480 (Panel 24A and […])] and MMR-deficient [CACO-2 and LoVo (Panel 24C and 24D)] cells were pretreated for 2 hours with 50 μM of NSC-124854 followed by the treatment with different concentrations of TMZ. After 48 hours, cells were harvested and processed for cytotoxicity determination. Data presented are the mean±SE of three different estimations.
(§5) The IC50 (the drug concentration needed to prevent cell proliferation by 50%) of TMZ was determined using a sulforhodamine B (SRB) colorimetric assay. This assay relies on the ability of SRB to bind the protein components of cells that have been fixed to tissue culture plates by trichloroacetic acid (TCA) (Vachai V, Kirtikara K. Sulforhodamine B colorimetric assay for cytotoxicity screening. Nat. Proto. 3: […], 2006). Briefly, the HCT-116(APC^+/+) and HCT-116(APC^−/−) were seeded in 96-well plates at a density of 500 cells per well. After 24 hours, while the cells were in the log phase of cell growth, the cells were treated with different concentrations of TMZ for 48 hours. The cells were subsequently fixed with 10% (w/v) of tricholoroacetic acid, washed with double distilled water, and stained with 0.4% SRB. […]

[10] = tested on: LoVo cells; experiment: SRB cytotoxicity assay, MMR-deficient cells; assay type: cell-based; settings: Homo sapiens, TMZ alone, 48 hours
Description: as §4, §5

[11] = tested on: HCT-116(APC+/+) and HCT-116(APC−/−) colon cancer cell lines; experiment: SRB cytotoxicity of the compounds alone (FIGS. 19E and F); assay type: cell-based, human; settings: up to 100 μM concentrations
Description: After 48 hours, cells were harvested and processed for cytotoxicity determination as described herein. […] Data are the mean±SE of three different estimations.
as §5, with “SRB. Cells were then repeatedly washed with 1% (v/v) of acetic acid to remove the unbound dye. The protein bound dye was dissolved in 10 mM Tris-base solution (pH 10.5). The developed color was measured at 564 nm.” for “SRB.”
APC blocked base excision repair and sensitized colon cancer cells after TMZ treatment. […] The cellular toxicity was determined by sulforhodamine B (SRB) colorimetric assay as described above. […]

[12] = 32P-U-DNA substrate, dose-dependent

| Molecule | pol-β-directed dRP-lyase activity [1] | pol-β-directed single-nucleotide incorporation ([2]; 32P-F-DNA substrate) | pol-β-directed strand-displacement synthesis ([2]; 32P-F-DNA substrate) | complete repair of 32P-U-DNA by the SN-BER pathway [3] | complete repair of 32P-U-DNA by the LP-BER pathway [3] | complete DNA repair of F-DNA (63-mer ligated product), LP-BER [4] | effect on the cytotoxicity of TMZ ([5]; HCT-116(APC+/+)) | effect on the cytotoxicity of TMZ [6] | cytotoxicity of the compound alone [11] | other results |
| --- | --- | --- | --- | --- | --- | --- | --- | --- | --- | --- |
| APC(I-A,Y-A): mutant APC peptide 1250-KVSSINQETAQTACVEDTPI-1269, Ile1259 and Tyr1262 replaced with alanine (UniProt P25054 1250-1269, looked up, variant I1259A Y1262A) [reference compound] | did not show any effect | unaffected | not | not | not | not |  |  |  |  |
| Cn1nnc2c(C(N)=O)ncn2c1=O [TMZ, Temozolomide, reference compound] |  |  |  |  |  |  |  |  |  | IC50 ([5]; Homo sapiens, HCT-116(APC+/+), 48 hours, SRB, read-out: IC50 of TMZ): 200 µM; sensitivity to TMZ of HCT-116(APC+/+) versus HCT-116(APC−/−) cells ([5]; ratio of IC50): 2 times; IC50 ([6]; Homo sapiens, 48 hours, SRB, read-out: IC50 of TMZ): 400 µM; IC50 ([7]; Homo sapiens, HCT-116-APC(WT)+ch3, TMZ alone, 48 hours): 100 µM; IC50 ([8]; Homo sapiens, SW480, TMZ alone, 48 hours): 120 µM; IC50 [9]: 364 µM; IC50 [10]: 677 µM |
| Cc1cc(S(=O)(=O)Nc2n[nH]c(Nc3ccc(Cl)cc3)n2)c(S)cc1Cl [NSC-666715] |  |  |  |  |  |  | increased | increased | very low |  |
| APCwt: wild-type APC peptide of 20 amino acids, 1250-KVSSINQETIQTYCVEDTPI-1269, DNA repair inhibitory (DRI)-domain (UniProt P25054 1250-1269, looked up, fragment) | blocked | unaffected | dose-dependent decrease; also recorded: blocked | blocked | blocked | blocked |  |  |  |  |
| NC1=NC(=O)N(C2CC(O)C(COP(=O)(O)O)O2)C(I)C1 (centres unmarked) [NSC-124854] | successfully blocked |  | dose-dependent decrease | blocked in a dose-dependent manner | blocked in a dose-dependent manner |  | increased | increased | very low | DNA synthesis (1-nt and strand-displacement) of pol-β ([2]; 32P-F-DNA substrate): completely blocked; potency among the four compounds tested, strand-displacement synthesis ([2]; inhibited at lower concentrations): most potent; Pol-β-mediated 1-nt incorporation [3, 12]: blocked; strand-displacement synthesis in the presence of Fen-1 [3, 12]: blocked; reduction of the IC50 of TMZ ([7]; HCT-116-APC(WT)+ch3, combination of 50 μM of NSC-124584): 2.5 fold; reduction of the IC50 of TMZ ([8]; SW480, combination of 50 μM of NSC-124584): 2.5 fold |
| O=C(O)CC(C(=O)O)C(CC(=O)O)C(=O)O (centres unmarked) [CN3] | did not inhibit | unaffected | dose-dependent decrease |  |  |  |  |  |  |  |
